Key:
[1] = test system: MM cells (MM1, MM2, and MM3) of multiple myeloma patients; test: MTT assay, MM cells from patients' bone marrow; type: cell-based, human; details: 10 μg/ml, 48 hours
Procedure: Next, to investigate the inhibitory effect of DHMEQ on proliferation of cells of multiple myeloma (MM) patients, MM cells (MM1, MM2, and MM3) were isolated from patients' bone marrow, incubated for 48 hours at the DHMEQ concentration of 10 μg/ml, and the proliferation-inhibitory effect was examined by the MTT assay. Peripheral blood mononuclear cells (PBMC) isolated from normal peripheral blood were used as control cells. In the figure, the vertical axis indicates the relative values of the MTT values of treated cells versus untreated cells, i.e., (DHMEQ-treated/untreated)×100%.

[2] = test system: MM cell lines, KMM1, RPMI8226, and U266; test: MTT assay, proliferation of multiple myeloma cell lines; type: cell-based
Procedure: Cells from the ATL cell lines (MT-1 and TL-Om1) and a control cell line (K562) were plated in 96-well plates at 1×10^5 cells/well and DHM2EQ was added at the desired final concentrations (2, 5, and 10 μg/ml). Cells to which the solvent DMSO had been added in equal volume (0 μg/ml) were used as […] incubation for 72 hours, cell viability was judged by the MTT assay. Relative MTT values were obtained as the ratio of the MMT values of DHM2EQ-treated cells to those of DHM2EQ-untreated cells, i.e., (MTT values of DHM2EQ-treated cells/MTT values of DHM2EQ-untreated cells)×100(%).
DHM2EQ was added to the ATL cell lines (MT-1 and TL-Om1) and a control cell line (K562) at a final concentration of 10 μg/ml and the cells were incubated for 12, 24, 48, and 72 hours. The proliferation-inhibitory effect was examined by the MTT assay. Cells to which the solvent DMSO had been added in equal volume were used as controls. Relative MTT values were obtained in the same manner as the aforementioned (1).
To investigate the influence of the DHMEQ concentrations on inhibition of cell proliferation, the cell viability was judged by using the MM cell lines, KMM1, RPMI8226, and U266 in the same method as in Example 5-(1). […]

[3] = test system: ATL cell lines (MT-1 and TL-Om1); test: Hoechst staining apoptosis assay, ATL cell lines; type: cell-based, human; details: 10 μg/ml, 72 hours
Procedure: DHM2EQ was added to the ATL cell lines (MT-1 and TL-Om1) and a control cell line (K562) at a final concentration of 10 μg/ml, followed by incubation for 72 hours. Subsequently, apoptosis was examined by observing nuclear […] or fragmentation on Hoechst staining with a fluorescence microscope. Cells to which the solvent DMSO had been added in equal volume were also examined in the same manner.

[4] = test system: cells of multiple myeloma (MM) patients; test: Hoechst staining apoptosis assay, cells of multiple myeloma patients; type: cell-based, human; details: 10 μg/ml, 72 hours
Procedure: Further, to investigate apoptosis induction of cells of multiple myeloma (MM) patients by DHMEQ, cells of multiple myeloma (MM) patients were incubated for 72 hours at a concentration of 10 μg/ml and the apoptosis was examined by observing nuclear condensation or fragmentation with a fluorescence microscope, using Hoechst staining.

O=C(NC1=CC(=O)C2OC2C1O)c1ccccc1O (centres unmarked) [DHMEQ, 5,6-epoxy-4-hydroxy-3-salicyloylamino-2-cyclohexenone]
proliferation of MM cells from patients (MTT) [1]: proliferation was suppressed | cell proliferation, concentration dependence (MTT) [2]: suppressed in proportion to the DHMEQ concentrations | cell proliferation, time course (MTT) [2]: suppressed in proportion to the DHMEQ treatment time | apoptosis (nuclear fragmentation, Hoechst staining) [3]: apoptosis was induced | apoptosis (Hoechst staining) [4]: induces apoptosis
